The results in this text go back to US20150065709A1, “Aminoquinazoline Derivative And Use Thereof In Preparing Anti-Malignant Tumor Medicament” (METABOMICS, INC, priority 2012, published 2015).

Assay [1] relates to FaDu. Briefly: Inhibition of tumor cells, WST method. It is filed as cell-based. The settings on record: Homo sapiens, Head and Neck. Here is the method:
(§1) (1) Compounds: in vitro studies the test compounds was dissolved in 100% DMSO and diluted until the final concentration of DMSO was 0.1%. The 0.1% (v/v) DMSO was added into culture medium as solvent control. 9 concentration gradients were tested and each gradient was repeated twice. (2) Tumor cell lines: the tumor cell lines were cultivated in RPMI10 culture medium containing 10% fetal calf serum in incubator at 37° C. in a 5% CO2 air incubator. The tested tumor cell lines were: BT474, MDA-MB-231, SK-Br-3, A431, H292, H1975, HCC827, A549, H1650 and H1734. (3) MTS method: cells were seeded into 96-well plate to give a density of about 3000 cells per well, and incubated overnight in a humidified incubator at 37° C. In the next day, the test compounds were added to the wells and further incubated for 72 hours. The cell activity was detected using MTS. IC50 was calculated (the concentration of a compound that is required for 50% inhibition of the cell growth versus the DMSO control group, using nonlinear regression analysis of software GraphPad Prism). […] In a 96-well plate, each test compound was tested at 9 dosage concentrations and each dosage was made in triplicate. Samples were added in 100 μL/well. Cell control and negative control wells contained diluents instead of compounds. Except the negative control well, 100 μL cell suspension of complete medium was added into each test well, wherein corresponding cell numbers were included to assure that the cells in cell control well just cover the bottom of the well as the required incubation time was reached. The plate was incubated in a CO2 incubator at 37° C. for 48 hours. The liquid in test wells was removed by pipetting. 100 μL CCK-8 (Cell counting Kit-8, purchased from DOJINDO Molecular Technologies) detection liquid (containing 10% CCK-8, 5% FBS corresponding medium) was added into each test well, then the plate was incubated in a CO2 incubator under at 37° C. for 3 hours. OD value was detected by ELIASA at A450 nm. Cell viability percentage (%)=(O.D. test compound-O.D. blank)/(O.D. control-O.D. blank)×100. Mean value was calculated for each 3 repeated wells, and IC50 was calculated using nonlinear regression (fitted curve) data analysis method.
(§2) Parts of test results of compound Ie listed in the table 3 and all of the test results listed in the table 4 were obtained by WST method.

Assay [2] concerns H1975. Description: Inhibition of tumor cells, WST method. The class given is cell-based. The settings on record: Homo sapiens, NCI-H1975, 48 hours. Here is the method:
as §1, §2

The subject of assay [3] is NCI-N87. Description: Inhibition of tumor cells, WST method. It is filed as cell-based. The settings on record: Homo sapiens, Stomach. Here is the method:
as §1, §2

The subject of assay [4] is MDA-MB-468. Briefly: Inhibition of tumor cells, WST method. The class given is cell-based. The settings on record: Homo sapiens, Breast. The procedure:
as §1, §2

Assay [5] deals with H1650. Description: Inhibition of tumor cells, WST method. It is filed as cell-based. The settings on record: Homo sapiens, NCI-H1650, 48 hours. Here is the method: as §1, §2
In assay [6] the test system is H292. Description: Inhibition of tumor cells, WST method. The class given is cell-based. As to conditions: Homo sapiens, NCI-H292, 48 hours. Here is the method: as §1, §2
Assay [7] relates to NUGC-3. Description: Inhibition of tumor cells, WST method. It is filed as cell-based. As to conditions: Homo sapiens, Stomach. Here is the method:
as §1, §2

For assay [8], the system named is BT474. Briefly: Inhibition of tumor cells, WST method. It is filed as cell-based. The settings on record: Homo sapiens, BT-474, 48 hours. Here is the method: as §1, §2
For assay [9], the system named is CAL27. Description: Inhibition of tumor cells, WST method. The class given is cell-based. As to conditions: Homo sapiens, CAL-27, Head and Neck. Here is the method: as §1, §2
Assay [10] relates to Calu-3. Description: Inhibition of tumor cells, WST method. As to conditions: Homo sapiens, Lung. The class given is cell-based. The procedure: as §1, §2
Assay [11] concerns DU145. Briefly: Inhibition of tumor cells, WST method. The settings on record: Homo sapiens, DU-145, Prostate. The class given is cell-based. Here is the method: as §1, §2
Assay [12] concerns ZR-75-30. Description: Inhibition of tumor cells, WST method. The class given is cell-based. As to conditions: Homo sapiens, Breast. The procedure:
as §1, §2

For assay [13], the system named is H1975 (non-small cell lung cancer). Description: Transplanted tumor in nude mice, further H1975 model. It is filed as in vivo, nude mice (BALB/c). As to conditions: 6.7, 13.4, 20.1 mg/kg/day orally for 21 days. An excerpt:
Furthermore, more pharmacological models of tumor cell lines in nude mice were utilized to validate the inhibitory effects of compound Ie. The test method was specifically described as follows: H1975, A549, HCC827, A431, N87, MDA-MD-468 and CAL27 tumor cells respectively were inoculated into nude mice (BALB/c, male, 5-6 weeks of age), and when the mean tumor volume reaches 150 mm^3 mice was randomized into groups. The H1975 tumor model in nude mice includes one positive control group and three dosage groups of compound Ie (6.7 mg/kg/day, 13.4 mg/kg/day, and 20.1 mg/kg/day. The A549 tumor model in nude mice includes one positive control group, two dosage groups of compound Ie (10 mg/kg/day, 20 mg/kg/day), and one dosage group of Docetaxel (12 mg/kg/day). The HCC827 tumor model in nude mice includes one positive control group, two dosage groups of compound Ie (0.5 mg/kg/day, 2.5 mg/kg/day), and one dosage group of Erlotinib (12.5 mg/kg/day). The A431 tumor model in nude mice includes one positive control group, two dosage groups of compound Ie (2.5 mg/kg/day, 5 mg/kg/day), and one dosage group of Erlotinib (50 mg/kg/day). […] The tumor size and body weight of nude mice were recorded twice weekly from the first day of administration. The tumor volume was calculated using formula (1×w^2), wherein 1 and w respectively represents the maximum and minimum size in each measurement. […]

Assay [14] deals with EGFR^T790M (Homo sapiens, UniProt P00533, T790M). Briefly: Caliper Mobility Shift Assay, mutant EGFR kinase. The settings on record: read-out: Inhibition of Kinase Activity (IC50, nM) EGFR^T790M. The class given is biochemical.
Sequence of EGFR^T790M (P00533 25-1210 T790M): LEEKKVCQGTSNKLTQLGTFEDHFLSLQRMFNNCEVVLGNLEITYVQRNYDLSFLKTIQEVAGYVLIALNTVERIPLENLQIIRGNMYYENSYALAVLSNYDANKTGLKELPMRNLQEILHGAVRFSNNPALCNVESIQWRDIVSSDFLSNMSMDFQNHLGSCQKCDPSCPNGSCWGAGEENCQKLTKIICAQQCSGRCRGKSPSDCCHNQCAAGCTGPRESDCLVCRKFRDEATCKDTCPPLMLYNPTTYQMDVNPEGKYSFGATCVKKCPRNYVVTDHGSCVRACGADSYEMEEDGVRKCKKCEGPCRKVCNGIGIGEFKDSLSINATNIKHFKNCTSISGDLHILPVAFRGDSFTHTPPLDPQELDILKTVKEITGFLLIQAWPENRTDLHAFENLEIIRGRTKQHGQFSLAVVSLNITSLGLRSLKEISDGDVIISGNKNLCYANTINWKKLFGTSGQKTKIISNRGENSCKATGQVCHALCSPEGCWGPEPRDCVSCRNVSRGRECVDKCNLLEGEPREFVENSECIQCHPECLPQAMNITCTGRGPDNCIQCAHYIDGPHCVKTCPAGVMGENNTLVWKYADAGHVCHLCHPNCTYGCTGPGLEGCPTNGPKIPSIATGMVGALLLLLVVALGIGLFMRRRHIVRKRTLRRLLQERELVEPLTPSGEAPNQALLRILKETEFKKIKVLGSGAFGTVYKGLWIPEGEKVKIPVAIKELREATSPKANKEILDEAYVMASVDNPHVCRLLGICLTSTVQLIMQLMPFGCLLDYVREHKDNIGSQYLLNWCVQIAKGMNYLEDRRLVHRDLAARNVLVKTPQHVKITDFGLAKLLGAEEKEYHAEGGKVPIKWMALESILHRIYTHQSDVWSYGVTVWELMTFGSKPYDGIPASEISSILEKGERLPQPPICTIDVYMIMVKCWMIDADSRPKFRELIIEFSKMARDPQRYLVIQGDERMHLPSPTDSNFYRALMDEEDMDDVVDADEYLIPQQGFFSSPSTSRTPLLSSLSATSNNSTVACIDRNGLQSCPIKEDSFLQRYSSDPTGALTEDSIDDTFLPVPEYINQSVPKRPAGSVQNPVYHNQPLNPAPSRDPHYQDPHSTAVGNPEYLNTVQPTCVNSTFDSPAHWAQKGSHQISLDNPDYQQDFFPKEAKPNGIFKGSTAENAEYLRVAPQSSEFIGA
In assay [15] the target is EGFR^L858R (Homo sapiens, UniProt P00533, L858R). Description: Caliper Mobility Shift Assay, mutant EGFR kinase. It is filed as biochemical. As to conditions: read-out: Inhibition of Kinase Activity (IC50, nM) EGFR^L858R.
Sequence of EGFR^L858R (P00533 25-1210 L858R): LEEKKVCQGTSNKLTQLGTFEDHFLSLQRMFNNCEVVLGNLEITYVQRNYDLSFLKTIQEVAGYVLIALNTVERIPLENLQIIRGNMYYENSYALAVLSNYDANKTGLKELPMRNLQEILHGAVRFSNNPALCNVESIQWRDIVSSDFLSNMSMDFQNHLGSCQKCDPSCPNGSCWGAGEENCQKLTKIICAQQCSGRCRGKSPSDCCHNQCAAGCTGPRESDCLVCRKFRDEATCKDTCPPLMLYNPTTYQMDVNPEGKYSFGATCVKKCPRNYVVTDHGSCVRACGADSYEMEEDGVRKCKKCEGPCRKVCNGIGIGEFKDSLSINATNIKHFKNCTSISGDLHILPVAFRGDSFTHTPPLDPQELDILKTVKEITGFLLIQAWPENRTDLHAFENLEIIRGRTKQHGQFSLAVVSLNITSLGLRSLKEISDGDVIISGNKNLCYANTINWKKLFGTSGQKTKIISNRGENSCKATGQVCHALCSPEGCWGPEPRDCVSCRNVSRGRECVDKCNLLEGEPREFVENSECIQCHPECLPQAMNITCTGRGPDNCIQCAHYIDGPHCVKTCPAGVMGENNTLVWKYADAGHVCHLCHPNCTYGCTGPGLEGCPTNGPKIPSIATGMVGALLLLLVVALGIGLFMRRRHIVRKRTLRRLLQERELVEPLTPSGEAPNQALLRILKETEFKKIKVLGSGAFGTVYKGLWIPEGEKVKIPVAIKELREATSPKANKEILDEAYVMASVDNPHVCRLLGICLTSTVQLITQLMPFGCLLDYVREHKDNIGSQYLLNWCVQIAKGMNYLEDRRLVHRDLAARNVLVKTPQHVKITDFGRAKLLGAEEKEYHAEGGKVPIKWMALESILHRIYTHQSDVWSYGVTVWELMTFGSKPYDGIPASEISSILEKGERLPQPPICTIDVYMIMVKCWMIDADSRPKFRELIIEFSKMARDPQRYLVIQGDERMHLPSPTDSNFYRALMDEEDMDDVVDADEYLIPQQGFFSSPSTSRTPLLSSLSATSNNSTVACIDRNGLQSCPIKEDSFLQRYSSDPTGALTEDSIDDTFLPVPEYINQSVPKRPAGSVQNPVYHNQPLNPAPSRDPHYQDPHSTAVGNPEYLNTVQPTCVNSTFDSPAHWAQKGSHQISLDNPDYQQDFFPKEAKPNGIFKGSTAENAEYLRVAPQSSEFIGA

Take `CN(C)C/C=C/C(=O)Nc1cc2c(Nc3ccc(F)c(Cl)c3)ncnc2cc1OC(F)F` [Compound Ie]: the IC50 in [1] was found to be 0.169 µM; in assay [2] it was 0.198 µM; in assay [3] it was 0.001 µM; in assay [4], 0.076 µM; in assay [5], 0.702 µM; in assay [6], 0.181 µM. Besides, the IC50 in [7] worked out at 0.055 µM; in assay [8] it was 0.088 µM; in [9], 0.002 µM; in assay [10], 0.022 µM; in assay [11], 0.853 µM; in assay [12] it was 0.683 µM. In addition, the IC50 turned out to be 4.6 nM in assay [14] and 0.65 nM in [15]. Moreover, in assay [13], the “inhibitory and therapeutic effects on H1975 tumor model” value was “strong inhibitory effects and therapeutic effects”.
